Experiment: recombinant UMI read abundance after kanamycin selection (control-corrected) (log10(CPM+1)); higher = more efficient recombination; extreme values may be limits of the assay; sequences stand for … in AGTGCAGAGAAAATCGGCCAGTTTTCTCTGCCTGCAGTCCGCATGCCGTGGGACCCCTTGGGTTCTAACCTGTTGCCTAGATTTATGCAGCGGACTGCCTTTCTCCCAAAGTGATAAACCGG…AGGTTGGTTTCACT; site = the 11-nt donor
Outline: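 The measure is log10(CPM+1) for recombinant UMIs. These were PCR-amplified across the donor–target junction and sequenced after Escherichia coli carrying a donor and donor-binding-loop pair library and a target plasmid with T7-inducible IS621 bridge recombinase was plated on IPTG (0.07 mM) plus kanamycin or unselected. CPM were averaged over two replicates and scaled by control-derived factors.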
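Also: IS621 bridge recombinase in Escherichia coli cells against a fixed T5 target plasmid.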

Sequence | recombinant UMI read abundance (log10)
TCCTGTTCATGGACCGGTTTTCCCGGTAATCCGTATTTGTC (site TCCTGTTCTGA) | 0
TCCTTCTCATGGACCGGTTTTCCCGGTAATCCGTATTTGGG (site ACCTTCTCTCC) | 0.0101
TCCTTCTCATGGACCGGTTTTCCCGGTAATCCGTATTTGGG (site CCCTTCTCTCC) | 0.00366
TCCTTCTCATGGACCGGTTTTCCCGGTAATCCGTATTTGGG (site GCCTTCTCTCC) | 0.104
TCCTTCTCATGGACCGGTTTTCCCGGTAATCCGTATTTGGG (site TCCTTCTCTCC) | 0.0162
TCCTTTACATGGACCGGTTTTCCCGGTAATCCGTATTTGTT (site TCCTTTACTAA) | 0.0163
TCGAACGCATGGACCGGTTTTCCCGGTAATCCGTATTTGCG (site TCGAACGCTCG) | 0.00434
TCGAAGACATGGACCGGTTTTCCCGGTAATCCGTATTTGCA (site AGGAAGACTTG) | 0.13
TCGAAGACATGGACCGGTTTTCCCGGTAATCCGTATTTGCA (site TCGAAGACTTG) | 1.88
TCGAATACATGGACCGGTTTTCCCGGTAATCCGTATTTGCA (site TAGAATACTTG) | 0.211
TCGAATACATGGACCGGTTTTCCCGGTAATCCGTATTTGCA (site TCGAATACTTG) | 0
TCGAATACATGGACCGGTTTTCCCGGTAATCCGTATTTGCA (site TGGAATACTTG) | 0.0214
TCGAATACATGGACCGGTTTTCCCGGTAATCCGTATTTGCA (site TTGAATACTTG) | 0
TCGAATCCATGGACCGGTTTTCCCGGTAATCCGTATTTGAG (site TCGAATCCTCT) | 0.516
TCGACACCATGGACCGGTTTTCCCGGTAATCCGTATTTGGA (site TCGACACCTTC) | 0.0336
TCGACTTCATGGACCGGTTTTCCCGGTAATCCGTATTTGTG (site TCGACTTCTCA) | 0
TCGATTACATGGACCGGTTTTCCCGGTAATCCGTATTTGGA (site TCGATTACTTC) | 0.277
TCGCACACATGGACCGGTTTTCCCGGTAATCCGTATTTGCG (site TCGCACACTCG) | 0.00409
TCGCCTACATGGACCGGTTTTCCCGGTAATCCGTATTTGTG (site TCGCCTACTCA) | 0.00919
TCGGCTACATGGACCGGTTTTCCCGGTAATCCGTATTTGCC (site TCGGCTACTGG) | 0
TCGGGCGCATGGACCGGTTTTCCCGGTAATCCGTATTTGTC (site TCGGGCGCTGA) | 2.19
TCGGGTGCATGGACCGGTTTTCCCGGTAATCCGTATTTGGA (site TCGGGTGCTTC) | 0.157
TCGGTTACATGGACCGGTTTTCCCGGTAATCCGTATTTGTT (site TCGGTTACTAA) | 0.835
TCGTACTCATGGACCGGTTTTCCCGGTAATCCGTATTTGCA (site TCATACTCTTG) | 2.44
TCGTACTCATGGACCGGTTTTCCCGGTAATCCGTATTTGCA (site TCCTACTCTTG) | 2.28

Sequence | recombinant UMI read abundance (log10)
TCGTACTCATGGACCGGTTTTCCCGGTAATCCGTATTTGCA (site TCGTACTCTTG) | 2.38
TCGTACTCATGGACCGGTTTTCCCGGTAATCCGTATTTGCA (site TCTTACTCTTG) | 2.29
TCGTCATCATGGACCGGTTTTCCCGGTAATCCGTATTTGAC (site TCGTCATCTGT) | 0
TCGTCGCCATGGACCGGTTTTCCCGGTAATCCGTATTTGCA (site TCGTCGCCTTG) | 0.00504
TCGTTAGCATGGACCGGTTTTCCCGGTAATCCGTATTTGTG (site ACGTTAGCTCA) | 0.00928
TCGTTAGCATGGACCGGTTTTCCCGGTAATCCGTATTTGTG (site CCGTTAGCTCA) | 0
TCGTTAGCATGGACCGGTTTTCCCGGTAATCCGTATTTGTG (site GCGTTAGCTCA) | 0.109
TCGTTAGCATGGACCGGTTTTCCCGGTAATCCGTATTTGTG (site TCGTTAGCTCA) | 0.255
TCGTTGTCATGGACCGGTTTTCCCGGTAATCCGTATTTGAA (site TCGTTGTCTTT) | 0.876
TCGTTGTCATGGACCGGTTTTCCCGGTAATCCGTATTTGTC (site TCGTTGTCTGA) | 0.41
TCGTTTACATGGACCGGTTTTCCCGGTAATCCGTATTTGCT (site ACGTTTACTAG) | 0
TCGTTTACATGGACCGGTTTTCCCGGTAATCCGTATTTGCT (site CCGTTTACTAG) | 0
TCGTTTACATGGACCGGTTTTCCCGGTAATCCGTATTTGCT (site GCGTTTACTAG) | 0
TCGTTTACATGGACCGGTTTTCCCGGTAATCCGTATTTGCT (site TCGTTTACTAG) | 1.68
TCTAACACATGGACCGGTTTTCCCGGTAATCCGTATTTGTC (site TCTAACACTGA) | 0
TCTAATACATGGACCGGTTTTCCCGGTAATCCGTATTTGGC (site ACTAATACTGC) | 0
TCTAATACATGGACCGGTTTTCCCGGTAATCCGTATTTGGC (site CCTAATACTGC) | 0
TCTAATACATGGACCGGTTTTCCCGGTAATCCGTATTTGGC (site GCTAATACTGC) | 0
TCTAATACATGGACCGGTTTTCCCGGTAATCCGTATTTGGC (site TCTAATACTGC) | 0
TCTAATACATGGACCGGTTTTCCCGGTAATCCGTATTTGGT (site TCTAATACTAC) | 0.0331
TCTAATTCATGGACCGGTTTTCCCGGTAATCCGTATTTGCC (site TCAAATTCTGG) | 0
TCTAATTCATGGACCGGTTTTCCCGGTAATCCGTATTTGCC (site TCCAATTCTGG) | 0
TCTAATTCATGGACCGGTTTTCCCGGTAATCCGTATTTGCC (site TCGAATTCTGG) | 0
TCTAATTCATGGACCGGTTTTCCCGGTAATCCGTATTTGCC (site TCTAATTCTGG) | 0
TCTACCGCATGGACCGGTTTTCCCGGTAATCCGTATTTGCG (site TCAACCGCTCG) | 0.00715

Sequence | recombinant UMI read abundance (log10)
TCTACCGCATGGACCGGTTTTCCCGGTAATCCGTATTTGCG (site TCCACCGCTCG) | 0.0035
TCTACCGCATGGACCGGTTTTCCCGGTAATCCGTATTTGCG (site TCGACCGCTCG) | 0.0889
TCTACCGCATGGACCGGTTTTCCCGGTAATCCGTATTTGCG (site TCTACCGCTCG) | 0.0133
TCTAGAACATGGACCGGTTTTCCCGGTAATCCGTATTTGTC (site TCTAGAACTGA) | 0
TCTAGGCCATGGACCGGTTTTCCCGGTAATCCGTATTTGGA (site TCTAGGCCTTC) | 0.0125
TCTAGTGCATGGACCGGTTTTCCCGGTAATCCGTATTTGGT (site ACTAGTGCTAC) | 0.0111
TCTAGTGCATGGACCGGTTTTCCCGGTAATCCGTATTTGGT (site CCTAGTGCTAC) | 0.229
TCTAGTGCATGGACCGGTTTTCCCGGTAATCCGTATTTGGT (site GCTAGTGCTAC) | 0
TCTAGTGCATGGACCGGTTTTCCCGGTAATCCGTATTTGGT (site TCTAGTGCTAC) | 0.0256
TCTATAACATGGACCGGTTTTCCCGGTAATCCGTATTTGGG (site TCTATAACTCC) | 0.0262
TCTATAGCATGGACCGGTTTTCCCGGTAATCCGTATTTGAC (site TCTATAGCTGT) | 0
TCTGAAGCATGGACCGGTTTTCCCGGTAATCCGTATTTGGT (site TCTGAAGCTAC) | 0.00288
TCTGAATCATGGACCGGTTTTCCCGGTAATCCGTATTTGAC (site TCTGAATCTGT) | 0
TCTGCGGCATGGACCGGTTTTCCCGGTAATCCGTATTTGAT (site TCTGCGGCTAT) | 0.0332
TCTGCGGCATGGACCGGTTTTCCCGGTAATCCGTATTTGTT (site TCTGCGGCTAA) | 0.0132
TCTGTTCCATGGACCGGTTTTCCCGGTAATCCGTATTTGAG (site TCTGTTCCTCT) | 0.0103
TCTTAAACATGGACCGGTTTTCCCGGTAATCCGTATTTGCA (site TCTTAAACTTG) | 0
TCTTACACATGGACCGGTTTTCCCGGTAATCCGTATTTGCC (site TCTTACACTGG) | 0.565
TCTTCAGCATGGACCGGTTTTCCCGGTAATCCGTATTTGTG (site TCTTCAGCTCA) | 0.0132
TCTTCATCATGGACCGGTTTTCCCGGTAATCCGTATTTGTA (site TCTTCATCTTA) | 0.00251
TCTTTCTCATGGACCGGTTTTCCCGGTAATCCGTATTTGCT (site TCTTTCTCTAG) | 0
TGAAAATCATGGACCGGTTTTCCCGGTAATCCGTATTTGTG (site TGAAAATCTCA) | 1
TGAAGGACATGGACCGGTTTTCCCGGTAATCCGTATTTGAC (site TGAAGGACTGT) | 2.4
TGAATAACATGGACCGGTTTTCCCGGTAATCCGTATTTGCA (site TGAATAACTTG) | 1.38
TGACCGACATGGACCGGTTTTCCCGGTAATCCGTATTTGAT (site TGACCGACTAT) | 0.561

Reference: the supplement of paper PMC11208160
